# From patent US20240057598A1, “USE OF 2-AMINO-3-METHYLHEXANOIC ACID AS PLANT IMMUNITY INDUCER” (NANJING AGRICULTURAL UNIVERSITY, priority 2020, published 2024)
# How the values were obtained:
# powdery mildew fungus = assay: Induced resistance of wheat to powdery mildew fungus infection; assay type: in vivo
# Description: 2-amino-3-methylhexanoic acid was dissolved in distilled water and diluted with distilled water into solutions of 1 nM, 10 nM, 100 nM, 1,000 nM and 10,000 nM by gradient, and blank control was additionally set. Wheat seeds were germinated, planted in a sterilized soil culture pot and cultured in a greenhouse at 23(±1)° C. with light for 12 h. When the seedlings grew to the stage of one leaf and one bud, the stems and leaves of the wheat seedlings were sprayed with the 2-amino-3-methylhexanoic acid solutions of the above concentrations. The treatment was repeated once after 24 h and conducted twice in total. After 24 h, fresh wheat powdery mildew spores were evenly scattered on the wheat leaves in three pots, with 20 plants per pot. After 10 days, the disease grade of wheat treated at each concentration was investigated. The disease degree was recorded according to the wheat powdery mildew grading standard in the Guidelines for the Field Efficacy Trials of Pesticides (I), and the disease index and relative immune effect were calculated by a method the same as that for calculating the disease index and relative immune effect of tomato spotted wilt. At the same time, the middle segment of the last but one leaf of wheat was taken and the distribution of mycelia on the wheat leaves was observed by referring to Wolf and Fric's rapid staining method of powdery mildew. Grading standard of wheat powdery mildew (per leaf): • Grade 1: The diseased spot area accounts for 5% or less of the whole leaf area. • Grade 3: The diseased spot area accounts for 6-15% of the whole leaf area. • Grade 5: The diseased spot area accounts for 16-25% of the whole leaf area. • Grade 7: The diseased spot area accounts for 26-50% of the whole leaf area. • Grade 9: The diseased spot area accounts for 50% or more of the whole leaf area.
# wheat = assay: Induced resistance of wheat to drought stress (25% PEG-6000); assay type: in vivo; details: for Drought injury index / Dry weight Overground part / Dry weight Underground part / Fresh weight Overground part / Fresh weight Underground part / Length of root: wheat, 25% PEG-6000 6 days, 7 days recovery
# Description: Wheat was cultured in water in a 6-mesh sieve used as a container according to 50 grains per sieve, and ½ Hoagland nutrient solution was changed every three days. When the wheat grew to the stage of two leaves and one bud, the leaf surface was sprayed with 2-amino-3-methylhexanoic acid solutions, the concentration of the 2-amino-3-methylhexanoic acid was 0, 100 and 1,000 nM, and 0.02% Tween 20 was added as a surfactant. After two days of continuous spraying, the water culture nutrient solution was replaced with ½ Hoagland nutrient solution containing 25% PEG-6000 on the 3rd day for stress treatment. After 6 days of drought stress, rehydration treatment was conducted. After 7 days of recovery growth in a normal nutrient solution, the drought index was observed and determined, and the root length and biomass were determined.
# The performance characteristics of drought injury of leaves are similar to those of salt injury. The drought injury rate and the drought injury index were introduced by using the evaluation indexes of salt injury. The formula for calculating the drought injury index is as follows, and the grading standard of drought injury is shown in Table 11.
# Pseudomonas aeruginosa = details: cited from earlier work
# [1] = concentration greater than 1,000 nM, susceptible wheat variety
# [2] = 1,000 nM, wheat seedlings, drought stress
structure (smiles),measurement,setting,value
CCCC(C)C(N)C(=O)O (centres unmarked) [2-amino-3-methylhexanoic acid],Relative immune effect,"powdery mildew fungus; 1 nM, wheat",3.5%
same,Relative immune effect,"powdery mildew fungus; 10 nM, wheat",15.56%
same,Relative immune effect,"powdery mildew fungus; 100 nM, wheat",27.63%
same,Relative immune effect,"powdery mildew fungus; 1,000 nM, wheat",55.06%
same,Relative immune effect,"powdery mildew fungus; 10,000 nM, wheat",65.37%
same,Disease index,powdery mildew fungus; [1],lower than 50
same,Relative immune effect,powdery mildew fungus; [1],more than 50%
same,Drought injury index,wheat; 100 nM,50%
same,Dry weight Overground part,wheat; 100 nM,0.79 ± 0.01a
same,Dry weight Underground part,wheat; 100 nM,0.34 ± 0.02a
same,Fresh weight Overground part,wheat; 100 nM,6.71 ± 0.69b
same,Fresh weight Underground part,wheat; 100 nM,3.48 ± 0.40a
same,Length of root,wheat; 100 nM,13.83 ± 0.26b
same,Decrease of drought index,wheat; [2],36%
same,Increase of dry weight of aboveground part,wheat; [2],10.00%
same,Increase of dry weight of underground part,wheat; [2],18.75%
same,Increase of fresh weight of aboveground part,wheat; [2],35.82%
same,Increase of fresh weight of underground part,wheat; [2],34.33%
same,Increase of root length compared with control group,wheat; [2],6%
same,Drought injury index,"wheat; 1,000 nM",30%
same,Dry weight Overground part,"wheat; 1,000 nM",0.88 ± 0.05a
same,Dry weight Underground part,"wheat; 1,000 nM",0.38 ± 0.02a
same,Fresh weight Overground part,"wheat; 1,000 nM",8.72 ± 0.59a
same,Fresh weight Underground part,"wheat; 1,000 nM",4.46 ± 0.01a
same,Length of root,"wheat; 1,000 nM",14.50 ± 0.27a
same,Inhibitory effect,Pseudomonas aeruginosa,slight inhibitory effect
